Biological target: Gastrin/cholecystokinin type B receptor (Cavia porcellus)
Assay: Displacement of [125I]-BH CCK-8S from Cholecystokinin type B receptor in guinea pig cortex

Row | Compound | IC50
1 | Cc1cccc(NC(=O)NC2N=C(N3CCNCC3)c3ccccc3N(C)C2=O)c1 (centres undefined) [1-(1-Methyl-2-oxo-5-piperazin-1-yl-2,3-dihydro-1H-benzo[e][1,4]diazepin-3-yl)-3-m-tolyl-urea] | 880 nM
2 | Cc1cccc(NC(=O)N[C@@H]2N=C(c3ccccc3)c3ccccc3N3C[C@H](C)N=C23)c1 [1-((2S,4R)-2-Methyl-6-phenyl-2,4-dihydro-1H-3,5,10b-triaza-benzo[e]azulen-4-yl)-3-m-tolyl-urea] | 1.8 nM
3 | CCCN1C(=O)C(NC(=O)Nc2cccc(C(F)(F)F)c2)N=C(N2CCN(C)CC2)c2ccccc21 (centres undefined) [1-[5-(4-Methyl-piperazin-1-yl)-2-oxo-1-propyl-2,3-dihydro-1H-benzo[e][1,4]diazepin-3-yl]-3-(3-trifluoromethyl-phenyl)-urea] | 12 nM
4 | Cc1cccc(NC(=O)NC2N=C(N3CCN(C(=O)OC(C)(C)C)CC3)c3ccccc3N(C)C2=O)c1 (centres undefined) [4-[1-Methyl-2-oxo-3-(3-m-tolyl-ureido)-2,3-dihydro-1H-benzo[e][1,4]diazepin-5-yl]-piperazine-1-carboxylic acid tert-butyl ester] | > 3000 nM

Reference: BindingDB's records for doi:10.1016/0960-894X(95)00530-0 (1995)
